Measurements: patent publication US20250243176A1, “(S)-1-(1-ACRYLOYLPIPERIDIN-3-YL)-2-FLUORO-5,6,7,8,9,10-HEXAHYDROCYCLO HEPTA[B]INDOLE-4-CARBOXAMIDE, AND RELATED CRYSTALLINE FORMS, COMPOSITIONS, AND METHODS THEREOF” (GB005, Inc., priority 2021, published 2025)
Read-outs that look alike come from different tables or passages of the source.

Test: Phase 1 CSF penetrance (CSF/unbound plasma concentration)
Format: in vivo
Conditions: both sexes, human, oral; for Kp at 2 h: CSF / unbound plasma
Experimental: Safety is assessed throughout the study and PK and PD are characterized using serial blood samples collected up to 48 hours post-dose for Compound 1 plasma concentrations, BTK target occupancy (TO) and target engagement (TE). Cerebrospinal fluid (CSF) samples are collected at 2 hours post-dose to characterize the relationship between Compound 1 plasma concentrations and CNS penetrance (CSF/Unbound plasma concentration). Compound 1 PK parameters (e.g., AUClast, AUCinf, Cmax, Tmax, t1/2) are estimated by standard noncompartmental methods.
Mean Compound 1 CSF:unbound plasma concentration ratios approximated 1 indicating unimpeded access of unbound drug in plasma into the CNS (see, e.g., Table 46, reported as Mean (% coefficient of variation), and FIG. 26 showing CSF to unbound plasma ratio by dose).

- Kp at 2 h (Cohort 2, 15 mg single dose, 2 hr post-dose, mean, read-out: CSF/Unbound Plasma): 0.95
- Kp at 2 h (Cohort 3, 45 mg single dose, 2 hr post-dose, mean, read-out: CSF/Unbound Plasma): 0.95
- Kp at 2 h (healthy subjects, CSF samples at 2 hours post-dose, read-out: Mean CSF:unbound plasma concentration ratio): ~1
- concentration at 2 h (CSF, Cohort 2, 15 mg single dose, mean, read-out: CSF Conc (2 hr)): 0.9 ng/mL
- concentration at 2 h (CSF, Cohort 3, 45 mg single dose, mean, read-out: CSF Conc (2 hr)): 2.07 ng/mL
- concentration at 2 h (plasma (unbound), Cohort 2, 15 mg single dose, mean, read-out: Unbound Plasma Conc @2 hr): 0.83 ng/mL
- concentration at 2 h (plasma (unbound), Cohort 3, 45 mg single dose, mean, read-out: Unbound Plasma Conc @2 hr): 2.33 ng/mL
- concentration at 2 h (plasma, Cohort 2, 15 mg single dose, mean, read-out: Plasma Conc @2 hr): 63.2 ng/mL
- concentration at 2 h (plasma, Cohort 3, 45 mg single dose, mean, read-out: Plasma Conc @2 hr): 159 ng/mL
SMILES: C=CC(=O)N1CCC[C@@H](c2c(F)cc(C(N)=O)c3[nH]c4c(c23)CCCCC4)C1 [Compound 1, (S)-1-(1-acryloylpiperidin-3-yl)-2-fluoro-5,6,7,8,9,10-hexahydrocyclohepta[b]indole-4-carboxamide]
